Assays:
C57BL/6J mice [1] = experiment: Y-maze test (spontaneous alternation behavior) after bilateral common carotid arteries occlusion; format: in vivo; conditions: oral, 7 days, FIG. 1
Experimental: (§1) Experimental Example: 10-week-old male C57BL/6J mice (CLEA Japan, Inc. approximately 25 g of average body weight per mouse) were preliminarily acclimated for 1 week, and provided for experiments. Citrulline and glutathione were obtained from KYOWA HAKKO BIO CO., LTD.
(§2) C57BL/6J mice were divided into a sham-operation group (Group 1) and a bilateral common carotid arteries occlusion group, which was performed under halothane anesthesia for 20 minutes. One day after reperfusion, the bilateral common carotid arteries occlusion group was further divided into a distilled water-treated group (Group 2), a low-dose citrulline-treated group (40 mg/kg: Group 3), a low-dose glutathione-treated group (40 mg/kg: Group 4), a high-dose citrulline-treated group (100 mg/kg: Group 5), a high-dose glutathione-treated group (100 mg/kg: Group 6), and a combination treatment group of a low dose of citrulline and a low dose of glutathione (each 40 mg/kg: Group 7). Each sample was orally administered for 12 days. One week after starting administration, learning memory-improving effects were examined by a Y-maze test, a passive avoidance test, and a novel object recognition test. After evaluating learning memory functions, the hippocampus was removed and viability of hippocampal nerve cells was evaluated.
In the Y-maze test, a Y-maze apparatus with three arms (50×16×32 cm) was used. Mice were placed at any one arm of the Y-maze and were allowed to explore freely through the maze for 8 minutes. The sequence of arm entries was recorded. The number of entries into each arm was counted during the measurement time, which was defined as the total number of entries. Of them, the successive entry into the three different arms was examined, and this number was defined as the spontaneous alternation behavior number. The spontaneous alternation behavior number was divided by (the total number of arm entries minus two), and then multiplied by 100, which was defined as the spontaneous alternation behavior rate (Alternation) and used as an index for spontaneous alternation behavior.

C57BL/6J mice [2] = experiment: Passive avoidance test after bilateral common carotid arteries occlusion; format: in vivo; conditions: oral, 7 days, FIG. 2
Experimental: as §1, §2
The passive avoidance test was performed using a box consisting of dark (25×25×25 cm) and light compartments (14×10×25 cm) and being equipped with an electrical stimulation apparatus at the bottom of the dark compartment. During training, as soon as the mouse entered the dark compartment from the light compartment, the door was closed, and an electrical stimulation (0.3 mA, for 2 seconds) was delivered. Twenty four hours after training, the mouse was placed again in the light compartment, and the latency time spent in the light compartment was recorded with a maximum latency of 300 seconds.

C57BL/6J mice [3] = experiment: Novel object recognition test after bilateral common carotid arteries occlusion; format: in vivo; conditions: oral, 7 days, FIG. 3
Experimental: as §1, §2
The novel object recognition test was performed after mice were individually acclimated to the open field apparatus (35×25×35 cm) for 2 days. During training, mice were allowed to explore freely for 10 minutes in an apparatus where two identical objects were symmetrically placed. After 1 hour, one object was replaced by a novel object, and mice were allowed to explore freely for 5 minutes. Object exploration was defined as standing on the objects, touching the object with the nose, or sniffing the object within 1 cm from the object. A ratio of the frequency of exploring the familiar or novel object over the total exploration frequency was calculated, and used as an index for visual recognition memory.

hippocampal nerve cells = experiment: Evaluation of viability of hippocampal nerve cells after bilateral common carotid arteries occlusion; format: in vivo, mice; conditions: oral, 12 days, CA1 pyramidal cell layer, FIG. 4
Experimental: as §1, §2
Twelve days after bilateral occlusion of the common carotid arteries, mice were anesthetized with pentobarbital sodium, and perfused with ice-cold phosphate buffer (PBS, pH 7.4) until the blood in the body was completely removed. Immediately, mice were perfused with a fixative solution containing 4% paraformaldehyde. The brain tissues were fixed at 4° C. for 24 hours, and coronal sections having a thickness of 50 μm were prepared. Serial sections containing the hippocampus were stained with propidium iodide (PI, 5 μmol/L) dissolved in PBS and observed under a fluorescent microscope. Surviving and non-surviving nerve cells in the CA1 pyramidal cell layer of the hippocampus were counted at 1.4 to 1.8 mm posterior to bregma, and cells with PI-positive nuclei and typical morphological characteristics were defined as […]. The cell viability was calculated from a ratio to the average number of surviving nerve cells in Group 1.

[4] = high dose 100 mg/kg alone (Group 5 citrulline, Group 6 glutathione)
[5] = low dose 40 mg/kg alone (Group 3 citrulline, Group 4 glutathione), vs distilled water Group 2
[6] = low dose 40 mg/kg alone (Group 3 citrulline, Group 4 glutathione), vs Group 2
[7] = low dose 40 mg/kg alone (Group 3 citrulline, Group 4 glutathione)

Row | Structure (SMILES) | spontaneous alternation behavior rate (Alternation) (C57BL/6J mice [1]; [4]) | spontaneous alternation behavior rate (Alternation) (C57BL/6J mice [1]; [5]) | time spent in the light compartment (Latency time) (C57BL/6J mice [2]; [4]) | time spent in the light compartment (Latency time) (C57BL/6J mice [2]; [6]) | frequency of exploring the novel object (C57BL/6J mice [3]; [4]) | frequency of exploring the novel object (C57BL/6J mice [3]; [7]) | viability of hippocampal nerve cells (hippocampal nerve cells; [4]) | viability of hippocampal nerve cells (hippocampal nerve cells; [6])
1 | NC(=O)NCCC[C@H](N)C(=O)O [citrulline] | remarkably improved effect of memory behavior | Alternation cannot be improved | remarkably improved effect of memory behavior | latency time cannot be improved | remarkably improved effect of memory behavior | frequency of exploring the novel object cannot be increased | nerve cell-protecting effect | viability of hippocampal nerve cells cannot be improved
2 | N[C@@H](CCC(=O)N[C@@H](CS)C(=O)NCC(=O)O)C(=O)O [glutathione] | remarkably improved effect of memory behavior | Alternation cannot be improved | remarkably improved effect of memory behavior | latency time cannot be improved | remarkably improved effect of memory behavior | frequency of exploring the novel object cannot be increased | nerve cell-protecting effect | viability of hippocampal nerve cells cannot be improved

Source: US10369186B2, “Method of treating decline in brain function comprising coadministration of citrulline and glutathione” (KYOWA HAKKO BIO CO., LTD., priority 2012, dated 2019)
